According to patent publication US20110053835A1, “ANTIMICROBIAL PEPTIDES DERIVED FROM CAP18” (OctoPlus Sciences B.V., priority 2004, published 2011):
Converted amounts (≈) assume the structure as drawn. Like-named read-outs stand apart in the source and are kept apart here. Marks after values point to notes of the source that are not given here.

How the values were obtained:
LPS [1] = assay: LPS neutralization, limulus amoebocyte lysate (LAL) assay; type: biochemical; settings: ± SD
Method: (§1) The compounds prepared according to example 1 were tested for their capability to neutralize the bacterial toxin LPS with a limulus amoebocyte lysate (LAL) assay and with a whole blood (WB) assay. LTA neutralization was also measured with a whole blood assay. Peptide LL-37 was used as a positive control. The peptide concentration whereby 50% LPS is neutralized was used as a measure of the peptide's activity. These concentration values were as in table 1. The differences between the compounds within each assay were not statistically significant.

LPS [2] = assay: LPS neutralization, whole blood (WB) assay; type: cell-based; settings: ± SD
Method: as §1

LTA = LTA neutralization, whole blood (WB) assay; type: cell-based; settings: ± SD
Method: as §1

[3] = tested on: peripheral blood mononuclear cells (PBMC); assay: γ-IFN Elispot assay; type: cell-based; settings: fraction of positive stimulation indices (positive: >2), 48 hours of culture
Method: (§2) The compounds prepared according to example 1 were tested for their therapeutically undesirable immunogenic activity by using Elispot, T-cell proliferation, ERK-activation, and neutrophil chemotaxis assays. The Elispot assay is applicable to determine effects of drugs, chemicals or other compounds on cytokine secretion in vitro, thereby providing data on their putative modulatory effects on immune function in vivo. The results of the assay are given as fraction of positive responses to IFN-gamma. […] Cytokines are direct mediators of inflammation and influence the progress and direction of many immunological reactions. Perturbation of the balance in cytokine production is widely recognized as a critical factor in several disease states. This balance is already disturbed in the case of conditions such as otitis media with effusion and sinusitis. T. cell proliferation is also not favorable in this situation, because this will also stimulate the immune response that is already out of control.
(§3) For T cell proliferation, 150,000 peripheral blood mononuclear cells (PBMC) were cultured in the absence or presence of 10 μg/ml of the compounds for 5 days in 96 well round bottom plates (Costar Inc. Cambridge, Mass.) in a final volume of 150 μl IMDM complete. As a positive control, PBMC were cultured in the presence of 25 U/ml recombinant IL-2. During the final 20 hours of culture, PBMC were pulsed with [3H]thymidine (0.5 microCi/well), after which 3H-incorporation was measured by liquid scintillation counting. For detection of the T cell cytokines IFN and IL-10 by Elispot analysis, 1.5×10^6 PBMC were cultured in 0.5 ml IMDM complete in the absence or presence of various concentrations of synthetic peptide. As a positive control PBMC were stimulated by 10 μg/ml poke weed mitogen (PWM). After 48 hours of culture, PBMC were harvested by gently rinsing the wells with warm IMDM to collect non-adherent cells, which were washed in a large volume of IMDM. PBMC were subsequently plated on antibody-precoated ELISA plates and cultured for 5 hours in IMDM supplemented with 2% pooled human AB serum at 37° C. 5% CO2, after which the plates were developed according to the manufacturer's protocol (U-CyTech, Utrecht, The Netherlands), Spots were counted on an Olympus microscope and analyzed with Olympus Micro Image 4.0 software (Paes Nederland, Zoeterwoude, The Netherlands). The final results are expressed as fraction of positive stimulation indices (positive: >2).

[4] = tested on: peripheral blood mononuclear cells (PBMC); assay: T cell proliferation ([3H]thymidine incorporation); type: cell-based; settings: fraction of positive stimulation indices (positive: >2), 10 μg/ml compound, 5 days
Method: as §2, §3

[5] = tested on: neutrophils isolated from peripheral blood; assay: Neutrophil chemotaxis (modified Boyden chamber); type: cell-based; settings: percentage neutrophils on the membrane compared to positive control 10^−8 M FMLP; 90 minutes at 37° C.
Method: Neutrophils chemotaxis was measured with neutrophils isolated from peripheral blood using Percoll density centrifugation (density: 1.082 g/ml). The cells were resuspended at a concentration of 2.5×10^6 cells/ml in chemotaxis medium (20 mM N-2-hydroxyethylpiperazine-N′-2-ethanesulfonic acid (HEPES buffer) HEPES, 132 mM NaCl, 6 mM KCl, 1.2 mM KH2PO4, 1 mM MgSO4, 5.5 mM glucose, 0.1 mM CaCl2 and 0.5% (wt/vol) human serum albumm [Central Laboratory of the Netherlands Red Cross Blood Transfusion Service (CLB), Amsterdam, The Netherlands] diluted 1:1 with serum-free RPMI. The chemotactic activity of the compounds was assessed using a modified Boyden Camber technique. Briefly, 26 μl stimuli diluted in HEPES buffer was added to the wells of the lower compartment, and 50 μl of neutrophil suspension (2.5×10^6 cells/ml) was added to the upper compartment. The compartments were separated by two filters: a lower filter with a pore size of 0.45 μm (Millipore Products, Bedford, Mass.) and an upper filter with a pore size of 8 μm (Sartorius Filter, San Francisco, Calif.). After incubation for 90minutes at 37° C., the upper filters were removed, fixed in ethanol-butanol (80:20, vol/vol), and stained with Weigert solution. To determine neutrophil chemotactic activity, neutrophils were counted in six random high-power fields (×400), and the percentage neutrophils on the membrane as compared to the positive control (10^−8 M, N-formylmethionyl-leucyl-phenylalanine (FMLP, Sigma) was calculated.

[6] = tested on: Aspergillus niger ATCC 14406
Method: (§4) The in vitro antibacterial and antifungal activity of P60.4-Ac and LL-37 were determined as the minimum inhibitory concentrations (MIC) by a microdilution susceptibility test in 96-well microtiter plates, according to a modified version of R. Hancock's “Modified MIC method for cationic antimicrobial peptides” [13]. The antibacterial activity was tested on the reference strains Escherichia coli ATCC 8739, Pseudmonas aeruginosa ATCC 9027. The antifungal activity was evaluated on Candida albicans ATCC 10231 and Aspergillus niger ATCC 14406. The antimicrobial activity assay was conducted with different concentrations of P60.4Ac and LL-37 to compare their effects on the bacterial or fungal growth. Antibacterial activity was examined using log-phase cultured bacteria in Trypticase Soy Broth at 37° C. The cultures were diluted with 10 mM Sodium Phosphate buffer pH 7.4 to give approximately 5.0×10^6 CFU/ml. 10 μl of the diluted test strain was transferred to a 96-well plate and 100 μl of the different peptide concentrations was added to each well. The plates were incubated at 37° C. for 24 hours and are then scored for growth by visual inspection on a light box. They are then returned for incubation for a further 24 hours after which time they are re-evaluated for growth. The yeast strain C. albicans was prepared as described above. The filamentous fungi A. niger was used as a spore suspension, cultured on Sabourauds Dextrose Agar plates at 20-25° C. for 6-10 days or until adequate sporulation has occurred. The spores were harvested by scrapping and if necessary the concentration was adjusted to a final concentration of 5×10^6 CFU/ml.

[7] = tested on: Candida albicans ATCC 10231
Method: as §4

[8] = tested on: Escherichia coli ATCC 8739; settings: mean of three determinations
Method: as §4

P. aeruginosa ATCC9027 = tested on: P. aeruginosa ATCC9027
Method: as §4

rats = assay: Single and repeated dose intravenous systemic toxicity study; type: in vivo, rat
Method: The systemic toxicity of P60.4Ac was assessed in a single and repeated dose toxicity study in rats. The peptide was administered daily intravenously in escalating doses. In this phase, the Maximum Tolerated Dose (MTD) was established. Repeated dose toxicity was also studied in the MTD phase. In the dose escalation phase, 9 rate were divided in three groups and received 0.4, 2 or 8 mg/kg/day for two days. Clinical signs were recorded twice daily on days of dosing and one day after dosing, body weights were recorded prior to the first dose and one day after dosing. In the MTD phase, 5 female and 5 male rats received 8 mg/kg/day for 5 following days. Clinical signs were recorded twice daily on days of dosing, body weight on day 1 and 6. Clinical laboratory investigations were performed prior to necropsy. Macroscopy was performed at termination of the MTD phase.

guinea pigs = type: in vivo, guinea pig
Method: The skin was sutured closed and follow-up auditory testing was performed.
Auditory brainstem response (ABR) was performed prior to drug administration and directly after surgery and 3, 7, 14 and 22 days later, using a computer-based signal averaging system (Tucker-Davis Technology, Alucha, Fla., USA). Guinea pigs were anesthetized and an insert earphone was placed into the external ear canal. […] Ground electrodes were placed over the neck muscles. […] Stimulus intensities were measured and expressed as dB.

rabbits [9] = settings: 0.5 ml peptide solution 2 mg/ml on clipped skin for 4 hours, semi-occlusive; observed 1-72 hours
Method: (§5) For the skin and eye irritation tests, three rabbits were exposed to 0.5 ml phosphate buffered peptide solution (2 mg/ml), applied onto clipped skin for 4 hours using a semi-occlusive dressing. Observations were made 1, 24, 48, and 72 hours after exposure. Single samples of 0.1 ml of phosphate buffered (pH7.5) peptide solution (2 mg/ml) were instilled into one eye of each of three rabbits to perform an acute eye irritation/corrosion study. Observations were made 1, 24, 48, and 72 hours after instillation.

rabbits [10] = tested on: rabbits
Method: as §5

[11] = A. niger ATCC14406, incubation 24 h
[12] = A. niger ATCC14406, incubation 48 h
[13] = C. albicans ATCC10231, incubation 24 h
[14] = C. albicans ATCC10231, incubation 48 h
[15] = E. coli ATCC8739, incubation 24 h
[16] = E. coli ATCC8739, incubation 48 h
[17] = P. aeruginosa ATCC9027, incubation 24 h
[18] = P. aeruginosa ATCC9027, incubation 48 h
[19] = intravenous, 8 mg/kg/day for 5 days
[20] = intravenous, 0.4, 2 or 8 mg/kg/day for two days

CC[C@H](C)[C@H](NC(=O)[C@H](CCCCN)NC(=O)[C@H](CCC(=O)O)NC(=O)[C@H](CCCCN)NC(=O)[C@H](CO)NC(=O)[C@H](CCCCN)NC(=O)[C@H](CCCNC(=N)N)NC(=O)[C@H](Cc1ccccc1)NC(=O)[C@H](Cc1ccccc1)NC(=O)[C@H](CC(=O)O)NC(=O)CNC(=O)[C@H](CC(C)C)NC(=O)[C@@H](N)CC(C)C)C(=O)NCC(=O)N[C@@H](CCCCN)C(=O)N[C@@H](CCC(=O)O)C(=O)N[C@@H](Cc1ccccc1)C(=O)N[C@@H](CCCCN)C(=O)N[C@@H](CCCNC(=N)N)C(=O)N[C@H](C(=O)N[C@H](C(=O)N[C@@H](CCC(N)=O)C(=O)N[C@@H](CCCNC(=N)N)C(=O)N[C@H](C(=O)N[C@@H](CCCCN)C(=O)N[C@@H](CC(=O)O)C(=O)N[C@@H](Cc1ccccc1)C(=O)N[C@@H](CC(C)C)C(=O)N[C@@H](CCCNC(=N)N)C(=O)N[C@@H](CC(N)=O)C(=O)N[C@@H](CC(C)C)C(=O)N[C@H](C(=O)N1CCC[C@H]1C(=O)N[C@@H](CCCNC(=N)N)C(=O)N[C@H](C(=O)N[C@@H](CCC(=O)O)C(=O)N[C@@H](CO)C(=O)O)[C@@H](C)O)C(C)C)[C@@H](C)CC)C(C)C)[C@@H](C)CC [LL-37, reference compound]
Compound concentration for 50% LPS-neutralization, LPS (LAL) (LPS [1]): 1.3 ± 0.2 µg/mL | Compound concentration for 50% LPS-neutralization, LPS (WB) (LPS [2]): 1.2 ± 0.3 µg/mL | Compound concentration for 50% LTA-neutralization, LTA (WB) (LTA): 1.6 ± 0.5 µg/mL | γ-IFN Elispot [3]: 4/8 | T cell proliferation [4]: 6/8 | Chemotaxis (%) [5]: 84 ± 17% | MIC [6, 11]: >18 µM | MIC [6, 12]: >18^e μM | activity against A. niger ([6]; up to 18 μM): no activity | MIC [7, 13]: 12 µM (≈ 53.9 µg/mL) | MIC [7, 14]: >18^e μM | MIC [8, 15]: 3 µM (≈ 13.5 µg/mL) | MIC [8, 16]: 7^b μM | MIC (P. aeruginosa ATCC9027; [17]): 3 µM (≈ 13.5 µg/mL) | MIC (P. aeruginosa ATCC9027; [18]): 14^d μM

Ac-IGKEFKRIVERIKRFLRELVRPLR-NH2 [Compound P60.4Ac]
clinical signs, body weight, hematology, clinical biochemistry and macroscopic examination, MTD phase (rats; [19]): no clear peptide related findings | mortality, MTD phase (rats; [19]): no mortality occurred | clinical signs and body weight, dose escalation phase (rats; [20]): no clear deviations | mortality, dose escalation phase (rats; [20]): no mortality occurred | ABR threshold change (guinea pigs; P60.4-Ac 2 mg/ml in PBS, 22 days after surgery): −7 dB | ABR threshold change (guinea pigs; P60.4-Ac as formulation II, both animals, 22 days): 1 dB | MIC [6, 11]: 18 µM | MIC [6, 12]: >18^e μM | MIC [7, 13]: 6 µM | MIC [7, 14]: 6^f μM | MIC [8, 15]: 2 µM | MIC [8, 16]: 3^c μM | MIC (P. aeruginosa ATCC9027; [17]): 3 µM | MIC (P. aeruginosa ATCC9027; [18]): 6^b μM | skin irritation (rabbits [9]): no skin irritation was detectable | time to complete resolution of conjunctival redness after instillation (rabbits [10]; 0.1 ml peptide solution 2 mg/ml into one eye): ≤ 24 h | eye irritation finding after ophthalmic instillation (rabbits [10]; 0.1 ml phosphate buffered (pH7.5) peptide solution 2 mg/ml into one eye): redness of the conjunctivae

IGKEFERIVQRIKDFLRNLVPRTE [Compound P60, 24 amino acid peptide derived from CAP18/LL-37]
Compound concentration for 50% LPS-neutralization, LPS (LAL) (LPS [1]): 1.5 ± 0.5 µg/mL | Compound concentration for 50% LPS-neutralization, LPS (WB) (LPS [2]): 1.4 ± 0.1 µg/mL | Compound concentration for 50% LTA-neutralization, LTA (WB) (LTA): 2.1 ± 0.7 µg/mL | γ-IFN Elispot [3]: 1/8 | T cell proliferation [4]: 7/8 | Chemotaxis (%) [5]: 76 ± 39%

IGKEFKRIVERIKRFLRELVRPLR [Compound P60.4]
Compound concentration for 50% LPS-neutralization, LPS (LAL) (LPS [1]): 1.7 ± 0.6 µg/mL | Compound concentration for 50% LPS-neutralization, LPS (WB) (LPS [2]): 2.1 ± 0.6 µg/mL | Compound concentration for 50% LTA-neutralization, LTA (WB) (LTA): 2.0 ± 1.3 µg/mL | γ-IFN Elispot [3]: 3/8 | T cell proliferation [4]: 2/8 | Chemotaxis (%) [5]: 0 ± 0%

IGKEFKRIVQRIKDFLRNLVPRTE [Compound P60.Ac]
Compound concentration for 50% LPS-neutralization, LPS (LAL) (LPS [1]): 1.8 ± 0.8 µg/mL | Compound concentration for 50% LPS-neutralization, LPS (WB) (LPS [2]): 2.4 ± 0.5 µg/mL | Compound concentration for 50% LTA-neutralization, LTA (WB) (LTA): 2.1 ± 0.1 µg/mL | γ-IFN Elispot [3]: 3/8 | T cell proliferation [4]: 4/8 | Chemotaxis (%) [5]: 61 ± 36%
